Data as given in patent US7964607B2, “Pyrazolo[3,4-d]pyrimidine compounds” (Pfizer Inc., priority 2007, dated 2011).

target: T1, human recombinant PDE9 enzyme (Homo sapiens, UniProt O76083); experiment: Phosphodiesterase 9 (PDE9) inhibitory activity, Scintillation Proximity (SPA) assay; assay type: biochemical; details: human recombinant PDE9 from SF-9 cells; 50 nM [3H]cGMP; room temperature, 30 min; additional compounds Ex. 115-228; read-out: G5678A (U):IC50
T1 construct: made in house; host or cells: SF-9 insect cells
How it was run: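 Recombinant human PDE9 from SF-9 cell lysate supernatant, diluted so that ≤20% of [3H]cGMP substrate was hydrolysed to 5′GMP. Reaction started with enzyme and run 30 min at room temperature with 2% DMSO final. SPA beads were counted after >300 min; background came from a high concentration of a PDE inhibitor.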

T1 sequence (O76083 whole entry): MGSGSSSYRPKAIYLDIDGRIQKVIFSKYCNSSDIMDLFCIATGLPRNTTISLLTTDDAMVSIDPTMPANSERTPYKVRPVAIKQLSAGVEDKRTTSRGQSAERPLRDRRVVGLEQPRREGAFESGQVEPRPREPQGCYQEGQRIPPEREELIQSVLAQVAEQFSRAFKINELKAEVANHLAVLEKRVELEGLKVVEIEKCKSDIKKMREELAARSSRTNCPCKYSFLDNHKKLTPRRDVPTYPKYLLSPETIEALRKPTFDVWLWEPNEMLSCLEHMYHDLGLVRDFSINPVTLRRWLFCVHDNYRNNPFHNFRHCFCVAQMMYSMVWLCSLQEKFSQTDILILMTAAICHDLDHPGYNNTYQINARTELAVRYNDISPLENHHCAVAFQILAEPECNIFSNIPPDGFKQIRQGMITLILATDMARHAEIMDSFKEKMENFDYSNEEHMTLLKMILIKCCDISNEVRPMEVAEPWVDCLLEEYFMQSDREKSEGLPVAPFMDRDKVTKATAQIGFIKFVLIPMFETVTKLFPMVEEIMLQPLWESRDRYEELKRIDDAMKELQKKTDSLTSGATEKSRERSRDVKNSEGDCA

| IC50 | SMILES |
| --- | --- |
| 54.2 nM | C[C@@H]1CN(Cc2nccs2)C[C@H]1c1nc2c(cnn2C2CCCC2)c(=O)[nH]1 (racemic) [Example 165, 1-cyclopentyl-6-[(3,4-trans)-4-methyl-1-(1,3-thiazol-2-ylmethyl)pyrrolidin-3-yl]-1,5-dihydro-4H-pyrazolo[3,4-d]pyrimidin-4-one] |
| 40.7 nM | Cc1ncc(CN2C[C@@H](C)[C@H](c3nc4c(cnn4C4CCCC4)c(=O)[nH]3)C2)cn1 (racemic) [Example 167, 1-cyclopentyl-6-{(3,4-trans)-4-methyl-1-[(2-methylpyrimidin-5-yl)methyl]pyrrolidin-3-yl}-1,5-dihydro-4H-pyrazolo[3,4-d]pyrimidin-4-one] |
| 30.7 nM | CCc1ncc(CN2C[C@@H](C)[C@H](c3nc4c(cnn4C4CCCC4)c(=O)[nH]3)C2)cn1 (racemic) [Example 168, 1-cyclopentyl-6-{(3,4-trans)-1-[(2-ethylpyrimidin-5-yl)methyl]-4-methylpyrrolidin-3-yl}-1,5-dihydro-4H-pyrazolo[3,4-d]pyrimidin-4-one] |
| 74.6 nM | CCn1cc(CN2C[C@@H](C)[C@H](c3nc4c(cnn4C4CCCC4)c(=O)[nH]3)C2)cn1 (racemic) [Example 170, 1-cyclopentyl-6-{(3,4-trans)-1-[(1-ethyl-1H-pyrazol-4-yl)methyl]-4-methylpyrrolidin-3-yl}-1,5-dihydro-4H-pyrazolo[3,4-d]pyrimidin-4-one] |
| 51.3 nM | COc1ccncc1CN1C[C@@H](C)[C@H](c2nc3c(cnn3C3CCCC3)c(=O)[nH]2)C1 (racemic) [Example 171, 1-cyclopentyl-6-{(3,4-trans)-1-[(4-methoxypyridin-3-yl)methyl]-4-methylpyrrolidin-3-yl}-1,5-dihydro-4H-pyrazolo[3,4-d]pyrimidin-4-one] |
| 67 nM | C[C@@H]1CN(Cc2ccno2)C[C@H]1c1nc2c(cnn2C2CCCC2)c(=O)[nH]1 (racemic) [Example 172, 1-cyclopentyl-6-[(3,4-trans)-1-(isoxazol-5-ylmethyl)-4-methylpyrrolidin-3-yl]-1,5-dihydro-4H-pyrazolo[3,4-d]pyrimidin-4-one] |

The remaining lines, values behind:

| SMILES | IC50 |
| --- | --- |
| C[C@@H]1CN(Cc2cccc(Cl)c2Cl)C[C@H]1c1nc2c(cnn2C2CCCC2)c(=O)[nH]1 (racemic) [Example 164, 1-cyclopentyl-6-[(3,4-trans)-1-(2,3-dichlorobenzyl)-4-methylpyrrolidin-3-yl]-1,5-dihydro-4H-pyrazolo[3,4-d]pyrimidin-4-one] | 78.9 nM |
| Cc1c(F)cccc1CN1C[C@@H](C)[C@H](c2nc3c(cnn3C3CCCC3)c(=O)[nH]2)C1 (racemic) [Example 166, 1-cyclopentyl-6-[(3,4-trans)-1-(3-fluoro-2-methylbenzyl)-4-methylpyrrolidin-3-yl]-1,5-dihydro-4H-pyrazolo[3,4-d]pyrimidin-4-one] | 68.3 nM |
| CC(C)c1ccc(CN2C[C@@H](C)[C@H](c3nc4c(cnn4C4CCCC4)c(=O)[nH]3)C2)cc1 (racemic) [Example 169, 1-cyclopentyl-6-[(3,4-trans)-1-(4-isopropylbenzyl)-4-methylpyrrolidin-3-yl]-1,5-dihydro-4H-pyrazolo[3,4-d]pyrimidin-4-one] | 117 nM |
| CCOc1ccc(CN2C[C@@H](C)[C@H](c3nc4c(cnn4C4CCCC4)c(=O)[nH]3)C2)cc1 (racemic) [Example 173] | 64 nM |
| C[C@@H]1CN(Cc2ccc(C(C)(C)O)nc2)C[C@H]1c1nc2c(cnn2C2CCCC2)c(=O)[nH]1 (racemic) [Example 174, 1-cyclopentyl-6-[(3,4-trans)-1-{[6-(1-hydroxy-1-methylethyl)pyridin-3-yl]methyl}-4-methylpyrrolidin-3-yl]-1,5-dihydro-4H-pyrazolo[3,4-d]pyrimidin-4-one] | 42 nM |
| C[C@@H]1CN(Cc2ccc3c(c2)CC(C)(C)O3)C[C@H]1c1nc2c(cnn2C2CCCC2)c(=O)[nH]1 (racemic) [Example 175, 1-cyclopentyl-6-{(3,4-trans)-1-[(2,2-dimethyl-2,3-dihydro-1-benzofuran-5-yl)methyl]-4-methylpyrrolidin-3-yl}-1,5-dihydro-4H-pyrazolo[3,4-d]pyrimidin-4-one] | 74.8 nM |
